Data on 13 compounds can be found in US20250179052A1, “PYRIMIDINYL-OXY-QUINOLINE BASED HERBICIDAL COMPOUNDS” (SYNGENTA CROP PROTECTION AG, priority 2022, published 2025).

Holding throughout (conditions): 250 g/ha, evaluated after 13 days, five-point scale
Assay [1] has as its system Echinochloa crus-galli (ECHCG). As to the kind of experiment: Post-emergence herbicidal glasshouse test. The assay is classed as in vivo.
Assay [2] has as its system AMAPA. As to the kind of experiment: Post-emergence herbicidal glasshouse test. The assay is classed as in vivo, Amaranthus tuberculatus.
For assay [3], the system named is Amaranthus retoflexus (AMARE). As to the kind of experiment: Post-emergence herbicidal glasshouse test. The assay is classed as in vivo.
Assay [4] deals with Ipomoea hederacea (IPOHE). The assay can be described thus: Post-emergence herbicidal glasshouse test. The assay is classed as in vivo.
The subject of assay [5] is Ipomoea hederacea (IPOHE). The assay can be described thus: Pre-emergence herbicidal glasshouse test. The assay is classed as in vivo.
For assay [6], the system named is Setaria faberi (SETFA). The assay can be described thus: Post-emergence herbicidal glasshouse test. The assay is classed as in vivo.
For assay [7], the system named is AMAPA. The assay can be described thus: Pre-emergence herbicidal glasshouse test. The assay is classed as in vivo, Amaranthus tuberculatus.
Assay [8] has as its system Amaranthus retoflexus (AMARE). The assay can be described thus: Pre-emergence herbicidal glasshouse test. The assay is classed as in vivo.
Assay [9] relates to Echinochloa crus-galli (ECHCG). As to the kind of experiment: Pre-emergence herbicidal glasshouse test. Type of assay: in vivo.
Assay [10] deals with Setaria faberi (SETFA). The assay can be described thus: Pre-emergence herbicidal glasshouse test. Type of assay: in vivo.

As for `N#Cc1cnc(Oc2cccc3nc(C(F)(F)F)ncc23)nc1` [Compound 1.003], the “percentage damage caused to the plant, ECHCG” value in assay [1] and in [9] was 1 (1=0-20%) each time. The “percentage damage caused to the plant, AMAPA” value in the assay with AMAPA [2] and with AMAPA [7] was 1 (1=0-20%) each time. Besides, the “percentage damage caused to the plant, AMARE” value in assay [3] and in [8] was 1 (1=0-20%) in each case. Also, the “percentage damage caused to the plant, IPOHE” value in assay [4] and in assay [5] was 1 (1=0-20%) each time. Further, the “percentage damage caused to the plant, SETFA” value in the assay with Setaria faberi (SETFA) [6] and with Setaria faberi (SETFA) [10] was 1 (1=0-20%) in each case.

Turning to `Cc1cnc(Oc2cccc3nc(C(F)(F)F)ncc23)nc1` [Compound 1.004], the “percentage damage caused to the plant, ECHCG” value is given as 3 (3=41-60%) in assay [1] and 5 (5=81-100%) in assay [9]. In addition, the “percentage damage caused to the plant, AMAPA” value with AMAPA [2] and in the assay on AMAPA [7] was 4 (4=61-80%) in each case. Besides, the “percentage damage caused to the plant, AMARE” value in assay [3] is 3 (3=41-60%); in assay [8], 5 (5=81-100%). For the same compound, the “percentage damage caused to the plant, IPOHE” value in [4] and in [5] was 4 (4=61-80%) each time. Besides, the “percentage damage caused to the plant, SETFA” value in the assay on Setaria faberi (SETFA) [6] and in the assay on Setaria faberi (SETFA) [10] was 4 (4=61-80%) each time.

Consider `FC(F)(F)c1ncc2c(Oc3ncc(Br)cn3)cccc2n1` [Compound 1.005], for which the “percentage damage caused to the plant, ECHCG” value in assay [1] is reported as 4 (4=61-80%); in assay [9], 3 (3=41-60%). For the same compound, the “percentage damage caused to the plant, AMAPA” value in the assay with AMAPA [2] and in the assay on AMAPA [7] was 5 (5=81-100%) each time. The “percentage damage caused to the plant, AMARE” value in assay [3] was 4 (4=61-80%); in [8], 5 (5=81-100%). For the same compound, the “percentage damage caused to the plant, IPOHE” value in [4] is on record as 4 (4=61-80%); in [5], 3 (3=41-60%). Further, the “percentage damage caused to the plant, SETFA” value with Setaria faberi (SETFA) [6] and in the assay with Setaria faberi (SETFA) [10] was 4 (4=61-80%) each time.

As to `Fc1cc(Cl)cnc1Oc1cccc2nc(C(F)(F)F)ncc12` [Compound 1.006], the “percentage damage caused to the plant, ECHCG” value in assay [1] and in assay [9] was 1 (1=0-20%) throughout. For the same compound, the “percentage damage caused to the plant, AMAPA” value with AMAPA [2] and in the assay on AMAPA [7] was 1 (1=0-20%) in each case. Moreover, the “percentage damage caused to the plant, AMARE” value in assay [3] is 2 (2=21-40%); in [8], 1 (1=0-20%). The entries for the “percentage damage caused to the plant, IPOHE” value in assay [4] and in assay [5] were 2 (2=21-40%) and 1 (1=0-20%), respectively. Moreover, the “percentage damage caused to the plant, SETFA” value in the assay with Setaria faberi (SETFA) [6] and with Setaria faberi (SETFA) [10] was 1 (1=0-20%) throughout.

As to `FC(F)(F)c1ncc2c(Oc3ncccn3)cccc2n1` [Compound 1.008], the “percentage damage caused to the plant, ECHCG” value in [1] and in [9] was 1 (1=0-20%) throughout. Also, the results for the “percentage damage caused to the plant, AMAPA” value with AMAPA [2] and with AMAPA [7] were 3 (3=41-60%) and 4 (4=61-80%), respectively. The “percentage damage caused to the plant, AMARE” value is 3 (3=41-60%) in [3] and 4 (4=61-80%) in assay [8]. The “percentage damage caused to the plant, IPOHE” value in [4] and in [5] was 3 (3=41-60%) each time. The “percentage damage caused to the plant, SETFA” value in the assay on Setaria faberi (SETFA) [6] is recorded as 1 (1=0-20%); with Setaria faberi (SETFA) [10] it was 4 (4=61-80%).

As to `FC(F)Oc1cnc(Oc2cccc3nc(C(F)(F)F)ncc23)nc1` [Compound 1.009], the “percentage damage caused to the plant, ECHCG” value in assay [1] and in assay [9] was 1 (1=0-20%) throughout. In addition, the “percentage damage caused to the plant, AMAPA” value is 1 (1=0-20%) with AMAPA [2] and 2 (2=21-40%) with AMAPA [7]. The “percentage damage caused to the plant, AMARE” value in assay [3] and in assay [8] was 1 (1=0-20%) each time. The “percentage damage caused to the plant, IPOHE” value in assay [4] and in [5] was 1 (1=0-20%) in each case. The “percentage damage caused to the plant, SETFA” value with Setaria faberi (SETFA) [6] and in the assay with Setaria faberi (SETFA) [10] was 1 (1=0-20%) in each case.

For `COc1ncc2c(Oc3ncc(Cl)cn3)cccc2n1` [Compound 1.016], the “percentage damage caused to the plant, ECHCG” value is reported as 1 (1=0-20%) in assay [1] and 3 (3=41-60%) in assay [9]. For the same compound, the “percentage damage caused to the plant, AMAPA” value in the assay on AMAPA [2] and in the assay with AMAPA [7] was 5 (5=81-100%) each time. The figures for the “percentage damage caused to the plant, AMARE” value in assay [3] and in assay [8] were 4 (4=61-80%) and 5 (5=81-100%), respectively. Moreover, the results for the “percentage damage caused to the plant, IPOHE” value in assay [4] and in [5] were 2 (2=21-40%) and 4 (4=61-80%), respectively. Besides, the “percentage damage caused to the plant, SETFA” value in the assay on Setaria faberi (SETFA) [6] is given as 1 (1=0-20%); in the assay on Setaria faberi (SETFA) [10] it was 3 (3=41-60%).

On to `FC(F)c1ncc2c(Oc3ncc(Cl)cn3)cccc2n1` [Compound 1.019], for which the “percentage damage caused to the plant, ECHCG” value is reported as 2 (2=21-40%) in assay [1] and 5 (5=81-100%) in [9]. Further, the figures for the “percentage damage caused to the plant, AMAPA” value in the assay on AMAPA [2] and in the assay with AMAPA [7] were 3 (3=41-60%) and 5 (5=81-100%), respectively. The “percentage damage caused to the plant, AMARE” value in assay [3] is on record as 4 (4=61-80%); in assay [8], 5 (5=81-100%). Also, the “percentage damage caused to the plant, IPOHE” value in assay [4] and in assay [5] was 4 (4=61-80%) throughout. Besides, the “percentage damage caused to the plant, SETFA” value is listed as 3 (3=41-60%) in the assay with Setaria faberi (SETFA) [6] and 5 (5=81-100%) in the assay on Setaria faberi (SETFA) [10].

For the compound `FC(F)(F)c1ccc2c(Oc3ncc(Cl)cn3)cccc2n1` [Compound 1.020, 5-(5-chloropyrimidin-2-yl)oxy-2 (trifluoromethyl)quinoline], the “percentage damage caused to the plant, ECHCG” value in [1] is reported as 4 (4=61-80%); in assay [9], 5 (5=81-100%). The “percentage damage caused to the plant, AMAPA” value with AMAPA [2] and with AMAPA [7] was 5 (5=81-100%) throughout. Also, the “percentage damage caused to the plant, AMARE” value in assay [3] and in assay [8] was 5 (5=81-100%) throughout. Moreover, the “percentage damage caused to the plant, IPOHE” value in assay [4] and in [5] was 4 (4=61-80%) throughout. The “percentage damage caused to the plant, SETFA” value in the assay with Setaria faberi (SETFA) [6] and in the assay on Setaria faberi (SETFA) [10] was 5 (5=81-100%) in each case.

As to `Cc1cc(C(F)(F)F)nc2cccc(Oc3ncc(Cl)cn3)c12` [Compound 1.021], the “percentage damage caused to the plant, ECHCG” value in [1] and in assay [9] was 1 (1=0-20%) each time. Also, the entries for the “percentage damage caused to the plant, AMAPA” value with AMAPA [2] and with AMAPA [7] were 2 (2=21-40%) and 1 (1=0-20%), respectively. The “percentage damage caused to the plant, AMARE” value in assay [3] is recorded as 3 (3=41-60%); in [8] it was 1 (1=0-20%). Also, the “percentage damage caused to the plant, IPOHE” value in [4] is 2 (2=21-40%); in [5] it was 1 (1=0-20%). Also, the “percentage damage caused to the plant, SETFA” value in the assay with Setaria faberi (SETFA) [6] and with Setaria faberi (SETFA) [10] was 1 (1=0-20%) in each case.

Turning to `Clc1cnc(Oc2cccc3ccncc23)nc1` [Compound 1.022], the “percentage damage caused to the plant, ECHCG” value in assay [1] and in [9] was 1 (1=0-20%) each time. Besides, the “percentage damage caused to the plant, AMAPA” value with AMAPA [2] is reported as 2 (2=21-40%); with AMAPA [7], 1 (1=0-20%). In addition, the “percentage damage caused to the plant, AMARE” value in [3] and in assay [8] was 1 (1=0-20%) throughout. Further, the “percentage damage caused to the plant, IPOHE” value in [4] and in assay [5] was 1 (1=0-20%) throughout. In addition, the “percentage damage caused to the plant, SETFA” value in the assay with Setaria faberi (SETFA) [6] and in the assay with Setaria faberi (SETFA) [10] was 1 (1=0-20%) in each case.

In the case of `Cc1cnc(Oc2cccc3nc(C(F)(F)F)ccc23)nc1` [Compound 1.040], the “percentage damage caused to the plant, ECHCG” value is 4 (4=61-80%) in assay [1] and 5 (5=81-100%) in [9]. The results for the “percentage damage caused to the plant, AMAPA” value in the assay with AMAPA [2] and in the assay with AMAPA [7] were 4 (4=61-80%) and 5 (5=81-100%), respectively. Besides, the “percentage damage caused to the plant, AMARE” value in [3] is 4 (4=61-80%); in [8] it was 5 (5=81-100%). Moreover, the “percentage damage caused to the plant, IPOHE” value in assay [4] and in assay [5] was 5 (5=81-100%) in each case. The “percentage damage caused to the plant, SETFA” value in the assay on Setaria faberi (SETFA) [6] is on record as 4 (4=61-80%); in the assay on Setaria faberi (SETFA) [10], 5 (5=81-100%).

As to `FC(F)(F)c1ccc2c(Oc3ncc(Br)cn3)cccc2n1` [Compound 1.041], the “percentage damage caused to the plant, ECHCG” value is on record as 2 (2=21-40%) in assay [1] and 3 (3=41-60%) in assay [9]. The “percentage damage caused to the plant, AMAPA” value in the assay with AMAPA [2] and in the assay on AMAPA [7] was 5 (5=81-100%) each time. Moreover, the “percentage damage caused to the plant, AMARE” value in assay [3] and in [8] was 5 (5=81-100%) in each case. The “percentage damage caused to the plant, IPOHE” value is recorded as 3 (3=41-60%) in assay [4] and 2 (2=21-40%) in assay [5]. Moreover, the “percentage damage caused to the plant, SETFA” value in the assay on Setaria faberi (SETFA) [6] and in the assay on Setaria faberi (SETFA) [10] was 4 (4=61-80%) each time.
